Laboratory results from patent publication US20170210723A1, “MOLECULES HAVING PESTICIDAL UTILITY, AND INTERMEDIATES, COMPOSITIONS, AND PROCESSES, RELATED THERETO” (priority 2016, published 2017).

What was measured:
[1] = test system: Beet Armyworm (Spodoptera exigua); experiment: Bioassays on BAW, 128-well diet tray assay; format: in vivo; conditions: Spodoptera exigua, 168 h; 50 μg/cm^2 on artificial diet, second instar larvae, five to seven days; read-out: BAW % Control (or Mortality) rating
Description: Bioassays on BAW were conducted using a 128-well diet tray assay. One to five second instar BAW larvae were placed in each well (3 mL) of the diet tray that had been previously filled with 1 mL of artificial diet to which 50 μg/cm^2 of the test molecule (dissolved in 50 μL of 90:10 acetone-water mixture) had been applied (to each of eight wells) and then allowed to dry. Trays were covered with a clear self-adhesive cover and held at 25° C., 14:10 light-dark for five to seven days. Percent mortality was recorded for the larvae in each well; activity in the eight wells was then averaged. The results are indicated in the table entitled “Table ABC: Biological Results” (See Table Section).
(§1) Bioassays on BAW and CL were conducted according to the procedures outlined in Example A: Bioassays on Beet Armyworm (“BAW”) and Cabbage Looper (“CL”) using the indicated concentrations.

[2] = test system: Cabbage Looper (Trichoplusia ni); experiment: Bioassays on CL, 128-well diet tray assay; format: in vivo; conditions: Trichoplusia ni, 168 h; 50 μg/cm^2 on artificial diet, second instar larvae, five to seven days; read-out: CL % Control (or Mortality) rating
Description: Bioassays on CL were conducted using a 128-well diet tray assay.
One to five second instar CL larvae were placed in each well (3 mL) of the diet tray that had been previously filled with 1 mL of artificial diet to which 50 μg/cm^2 of the test molecule (dissolved in 50 μL of 90:10 acetone-water mixture) had been applied (to each of eight wells) and then allowed to dry. Trays were covered with a clear self-adhesive cover and held at 25° C., 14:10 light-dark for five to seven days. Percent mortality was recorded for the larvae in each well; activity in the eight wells was then averaged. The results are indicated in the table entitled “Table ABC: Biological Results” (See Table Section).
as §1

**Q.** Which mortality at 50 µg/cm2 [1] does the source give for `O=C(NCCS(=O)(=O)CC(F)(F)F)c1ccc(/C=C/C(c2cc(Cl)c(Cl)c(Cl)c2)C(F)(F)F)cc1Br` (stereo not drawn) [F10, (E)-2-Bromo-4-(4,4,4-trifluoro-3-(3,4,5-trichlorophenyl)but-1-en-1-yl)-N-(2-((2,2,2-trifluoroethyl)sulfonyl)ethyl)benzamide] here?
**A.** Its mortality at 50 µg/cm2 is 50 to 100%.

**Q.** And the mortality at 50 µg/cm2 [2]?
**A.** The mortality at 50 µg/cm2 was 50 to 100%.

**Q.** Which mortality at 50 µg/cm2 [1] does the source give for `C[C@H](CS(=O)(=O)CC(F)(F)F)NC(=O)c1ccc(/C=C/C(c2cc(Cl)c(Cl)c(Br)c2)C(F)(F)F)cc1C(F)(F)F` (stereo partly drawn) [F114, 4-((E)-3-(3-Bromo-4,5-dichlorophenyl)-4,4,4-trifluorobut-1-en-1-yl)-N—((R)-1-((2,2,2-trifluoroethyl)sulfonyl)propan-2-yl)-2-(trifluoromethyl)benzamide] here?
**A.** The mortality at 50 µg/cm2 was 50 to 100%.

**Q.** And the mortality at 50 µg/cm2 [2]?
**A.** Its mortality at 50 µg/cm2 is 50 to 100%.

**Q.** What does the source list for `CCO/C(=C\C(c1cc(Cl)c(Cl)c(Cl)c1)C(F)(F)F)c1ccc(C(=O)N[C@H](C)CSCC(F)(F)F)c(C(F)(F)F)c1` (stereo partly drawn) [F29, 4-((Z)-1-ethoxy-4,4,4-trifluoro-3-(3,4,5-trichlorophenyl)but-1-en-1-yl)-N—((R)-1-((2,2,2-trifluoroethyl)thio)propan-2-yl)-2-(trifluoromethyl)benzamide]?
**A.** mortality at 50 µg/cm2 [1]: 50 to 100%; mortality at 50 µg/cm2 [2]: 0%

**Q.** Which results are given for `C[C@H](CS(=O)(=O)CC(F)(F)F)NC(=O)c1ccc(/C=C/C(c2ccc(Cl)c(Cl)c2)C(F)(F)F)cc1Br` (stereo partly drawn) [F124, 2-Bromo-4-((E)-3-(3,4-dichlorophenyl)-4,4,4-trifluorobut-1-en-1-yl)-N—((R)-1-((2,2,2-trifluoroethyl)sulfonyl)propan-2-yl)benzamide]?
**A.** mortality at 50 µg/cm2 [1]: 50 to 100%; mortality at 50 µg/cm2 [2]: 50 to 100%

**Q.** What does the source list for `C[C@H](CS(=O)(=O)CC(F)(F)F)NC(=O)c1ccc(/C=C/C(c2ccc(C(F)(F)F)c(F)c2)C(C)(F)F)cc1C(F)(F)F` (stereo partly drawn) [F123, 4-((E)-4,4-Difluoro-3-(3-fluoro-4-(trifluoromethyl)phenyl)pent-1-en-1-yl)-N—((R)-1-((2,2,2-trifluoroethyl)sulfonyl)propan-2-yl)-2-(trifluoromethyl)benzamide]?
**A.** mortality at 50 µg/cm2 [1]: 50 to 100%; mortality at 50 µg/cm2 [2]: 50 to 100%

**Q.** `CC[C@H](C[S+]([O-])CC(F)(F)F)NC(=O)c1ccc(/C=C/C(c2cc(Cl)c(Cl)c(Cl)c2)C(F)(F)F)cc1C(F)(F)F` (stereo partly drawn) [F18, 4-((E)-4,4,4-Trifluoro-3-(3,4,5-trichlorophenyl)but-1-en-1-yl)-N-((2R)-1-((2,2,2-trifluoroethyl)sulfinyl)butan-2-yl)-2-(trifluoromethyl)benzamide] was tested. Which mortality at 50 µg/cm2 [1] did it give?
**A.** Its mortality at 50 µg/cm2 is 50 to 100%.

**Q.** And the mortality at 50 µg/cm2 [2]?
**A.** Its mortality at 50 µg/cm2 is 50 to 100%.

**Q.** `C=Cc1cc(C(/C=C/c2ccc(C(=O)N[C@H](C)CS(=O)(=O)CC(F)(F)F)c(C(F)(F)F)c2)C(F)(F)F)cc(Cl)c1Cl` (stereo partly drawn) [F115, 4-((E)-3-(3,4-Dichloro-5-vinylphenyl)-4,4,4-trifluorobut-1-en-1-yl)-N—((R)-1-((2,2,2-trifluoroethyl)sulfonyl)propan-2-yl)-2-(trifluoromethyl)benzamide] was tested. Which mortality at 50 µg/cm2 [1] did it give?
**A.** The mortality at 50 µg/cm2 was 50 to 100%.

**Q.** And the mortality at 50 µg/cm2 [2]?
**A.** Its mortality at 50 µg/cm2 is 50 to 100%.

**Q.** How did the mortality at 50 µg/cm2 [1] turn out when `CC(C)[C@H](CS(=O)(=O)CC(F)(F)F)NC(=O)c1ccc(/C=C/C(c2cc(Cl)c(Cl)c(Cl)c2)C(F)(F)F)cc1C(F)(F)F` (stereo partly drawn) [F16, N—((R)-3-Methyl-1-((2,2,2-trifluoroethyl)sulfonyl)butan-2-yl)-4-((E)-4,4,4-trifluoro-3-(3,4,5-trichlorophenyl)but-1-en-1-yl)-2-(trifluoromethyl)benzamide] was run?
**A.** Its mortality at 50 µg/cm2 is 50 to 100%.

**Q.** And the mortality at 50 µg/cm2 [2]?
**A.** Its mortality at 50 µg/cm2 is 50 to 100%.

**Q.** With `C[C@H](CS(=O)(=O)CC(F)(F)F)NC(=O)c1ccc(/C=C/C(c2cc(Cl)cc(Cl)c2)C(C)(F)F)cc1Br` (stereo partly drawn) [F133, 2-Bromo-4-((E)-3-(3,5-dichlorophenyl)-4,4-difluoropent-1-en-1-yl)-N—((R)-1-((2,2,2-trifluoroethyl)sulfonyl)propan-2-yl)benzamide] as the compound, how does the mortality at 50 µg/cm2 [1] read?
**A.** The mortality at 50 µg/cm2 was 50 to 100%.

**Q.** And the mortality at 50 µg/cm2 [2]?
**A.** The mortality at 50 µg/cm2 was 50 to 100%.

**Q.** How did the mortality at 50 µg/cm2 [1] turn out when `CC(F)(F)C(/C=C/c1ccc(C(=O)NCC[S+]([O-])CCF)c(C(F)(F)F)c1)c1cc(Cl)c(Cl)c(Cl)c1` (stereo not drawn) [F129, (E)-4-(4,4-Difluoro-3-(3,4,5-trichlorophenyl)pent-1-en-1-yl)-N-(2-((2-fluoroethyl)sulfinyl)ethyl)-2-(trifluoromethyl)benzamide] was run?
**A.** The mortality at 50 µg/cm2 was 50 to 100%.

**Q.** And the mortality at 50 µg/cm2 [2]?
**A.** Its mortality at 50 µg/cm2 is 50 to 100%.

**Q.** `CC(C)S(=O)(=O)C[C@@H](C)NC(=O)c1ccc(/C=C/C(c2cc(Cl)c(Cl)c(Cl)c2)C(F)(F)F)cc1C(F)(F)F` (stereo partly drawn) [F80, N—((R)-1-(Isopropylsulfonyl)propan-2-yl)-4-((E)-4,4,4-trifluoro-3-(3,4,5-trichlorophenyl)but-1-en-1-yl)-2-(trifluoromethyl)benzamide] was tested. Which mortality at 50 µg/cm2 [1] did it give?
**A.** The mortality at 50 µg/cm2 was 50 to 100%.

**Q.** What about the mortality at 50 µg/cm2 [2] of the same compound?
**A.** Its mortality at 50 µg/cm2 is 50 to 100%.

**Q.** Which results are given for `C[C@H](CS(=O)(=O)CC(F)(F)F)NC(=O)c1ccc(/C=C/C(c2cc(Cl)c(Cl)c(Cl)c2)C(F)(F)F)cc1C(F)F` (stereo partly drawn) [F43, 2-(Difluoromethyl)-4-((E)-4,4,4-trifluoro-3-(3,4,5-trichlorophenyl)but-1-en-1-yl)-N—((R)-1-((2,2,2-trifluoroethyl)sulfonyl)propan-2-yl)benzamide]?
**A.** mortality at 50 µg/cm2 [1]: 50 to 100%; mortality at 50 µg/cm2 [2]: 50 to 100%

**Q.** How did the mortality at 50 µg/cm2 [1] turn out when `C[C@H](CSCC(F)(F)F)NC(=O)c1ccc(/C=C/C(c2cc(Cl)c3c(c2)OCO3)C(F)(F)F)cc1C(F)(F)F` (stereo partly drawn) [F75, 4-((E)-3-(7-Chlorobenzo[d][1,3]dioxol-5-yl)-4,4,4-trifluorobut-1-en-1-yl)-N—((R)-1-((2,2,2-trifluoroethyl)thio)propan-2-yl)-2-(trifluoromethyl)benzamide] was run?
**A.** The mortality at 50 µg/cm2 was 50 to 100%.

**Q.** And the mortality at 50 µg/cm2 [2]?
**A.** The mortality at 50 µg/cm2 was 50 to 100%.

**Q.** For `C[C@H](CS(=O)(=O)CC(F)(F)F)NC(=O)c1ccc(/C=C/C(c2cc(Cl)c(Cl)c(Cl)c2)C(C)(F)F)cc1Br` (stereo partly drawn) [F130, 2-bromo-4-((E)-4,4-difluoro-3-(3,4,5-trichlorophenyl)pent-1-en-1-yl)-N—((R)-1-((2,2,2-trifluoroethyl)sulfonyl)propan-2-yl)benzamide], which mortality at 50 µg/cm2 [1] is on record?
**A.** The mortality at 50 µg/cm2 was 50 to 100%.

**Q.** What about the mortality at 50 µg/cm2 [2] of the same compound?
**A.** The mortality at 50 µg/cm2 was 50 to 100%.

**Q.** For `CC(C)CS(=O)(=O)C[C@@H](C)NC(=O)c1ccc(/C=C/C(c2cc(Cl)c(Cl)c(Cl)c2)C(F)(F)F)cc1C(F)(F)F` (stereo partly drawn) [F81, N—((R)-1-(Isobutylsulfonyl)propan-2-yl)-4-((E)-4,4,4-trifluoro-3-(3,4,5-trichlorophenyl)but-1-en-1-yl)-2-(trifluoromethyl)benzamide], which mortality at 50 µg/cm2 [1] is on record?
**A.** Its mortality at 50 µg/cm2 is 50 to 100%.

**Q.** And the mortality at 50 µg/cm2 [2]?
**A.** The mortality at 50 µg/cm2 was 50 to 100%.

**Q.** How did the mortality at 50 µg/cm2 [1] turn out when `C[C@H](CSCC(F)(F)F)NC(=O)c1ccc(/C=C/C(c2cc(Cl)c(Cl)c(Cl)c2)C(F)(F)F)cc1C(F)F` (stereo partly drawn) [F32, 2-(Difluoromethyl)-4-((E)-4,4,4-trifluoro-3-(3,4,5-trichlorophenyl)but-1-en-1-yl)-N—((R)-1-((2,2,2-trifluoroethyl)thio)propan-2-yl)benzamide] was run?
**A.** The mortality at 50 µg/cm2 was 50 to 100%.

**Q.** And the mortality at 50 µg/cm2 [2]?
**A.** Its mortality at 50 µg/cm2 is 50 to 100%.

**Q.** What does the source list for `C[C@H](C[S+]([O-])CC(F)(F)F)NC(=O)c1ccc(/C=C/C(c2cc(Cl)c(Cl)c(Cl)c2)C(F)(F)F)cc1C(F)(F)F` (stereo partly drawn) [F23, 4-((E)-4,4,4-Trifluoro-3-(3,4,5-trichlorophenyl)but-1-en-1-yl)-N-((2R)-1-((2,2,2-trifluoroethyl)sulfinyl)propan-2-yl)-2-(trifluoromethyl)benzamide]?
**A.** mortality at 50 µg/cm2 [1]: 50 to 100%; mortality at 50 µg/cm2 [2]: 50 to 100%

**Q.** How did the mortality at 50 µg/cm2 [1] turn out when `C[C@H](C[S+]([O-])CCF)NC(=O)c1ccc(/C=C/C(c2cc(Cl)c(Cl)c(Cl)c2)C(C)(F)F)cc1C(F)(F)F` (stereo partly drawn) [F121, 4-((E)-4,4-Difluoro-3-(3,4,5-trichlorophenyl)pent-1-en-1-yl)-N-((2R)-1-((2-fluoroethyl)sulfinyl)propan-2-yl)-2-(trifluoromethyl)benzamide] was run?
**A.** Its mortality at 50 µg/cm2 is 50 to 100%.

**Q.** And the mortality at 50 µg/cm2 [2]?
**A.** Its mortality at 50 µg/cm2 is 50 to 100%.
